Patent US20240209043A1, “NON-ANTIBODY BINDING PEPTIDES AND THEIR ANALOGS DUAL-TARGETING TO PD-1 AND PD-L1, AND USES THEREOF” (ORAL SUBSIDIARY SUN YAT-SEN UNIVERSITY HOSPITAL, priority 2021, published 2024)
“Also recorded” adds a separate entry of the source. Where a SMILES comes first, the peptide text is derived from it. Bridges are numbered along the chain shown (N, C = ends). Roman numbers before positions name the chains, in order. Where no end group is shown, it is not given here.

What was measured:
PD-1 [1] = molecular target: T1, PD-1 (Homo sapiens, UniProt Q15116); test: ka (1/Ms)
Text: Table printed on a drawing sheet, Figure 2E
Title: nABP786 binding to PD-1
(§1) Head of the field: ka (1/Ms)
(§2) The patent's description of the figure: FIG. 2A depicts test results of binding affinity of nABP284 to PD-1 measured by surface plasmon resonance (SPR);
(§3) FIG. 2B depicts test results of binding affinity of nABP386 to PD-1 measured by SPR;
(§4) FIG. 2C depicts test results of binding affinity of nABP486 to PD-1 measured by SPR;
(§5) FIG. 2D depicts test results of binding affinity of nABP486 to PD-L1 measured by SPR;
(§6) FIG. 2E depicts test results of binding affinity of nABP786 to PD-1 measured by SPR;
(§7) FIG. 2F depicts test results of binding affinity of nABP786 to PD-L1 measured by SPR;
First copying reader's note: Inset table of SPR kinetic constants printed above the sensorgram; the target is PD-1.
Where the first naming reader finds the target: table_title: nABP786 binding to PD-1
Target sequence in this assay (Q15116 25-288 limits assumed): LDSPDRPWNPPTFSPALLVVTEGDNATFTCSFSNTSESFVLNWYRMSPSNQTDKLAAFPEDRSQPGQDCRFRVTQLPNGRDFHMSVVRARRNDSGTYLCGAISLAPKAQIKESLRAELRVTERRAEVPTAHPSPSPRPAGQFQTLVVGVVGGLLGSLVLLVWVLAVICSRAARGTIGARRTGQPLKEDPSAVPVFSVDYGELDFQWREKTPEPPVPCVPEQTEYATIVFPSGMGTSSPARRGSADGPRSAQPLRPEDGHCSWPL

PD-L1 [2] = molecular target: T2, PD-L1 (Homo sapiens, UniProt Q9NZQ7); test: ka (1/Ms)
Text: Table printed on a drawing sheet, Figure 2F
Title: nABP786 binding to PD-L1
as §1, §2, §3, §4, §5, §6, §7
Target sequence in this assay (Q9NZQ7 19-290 limits assumed): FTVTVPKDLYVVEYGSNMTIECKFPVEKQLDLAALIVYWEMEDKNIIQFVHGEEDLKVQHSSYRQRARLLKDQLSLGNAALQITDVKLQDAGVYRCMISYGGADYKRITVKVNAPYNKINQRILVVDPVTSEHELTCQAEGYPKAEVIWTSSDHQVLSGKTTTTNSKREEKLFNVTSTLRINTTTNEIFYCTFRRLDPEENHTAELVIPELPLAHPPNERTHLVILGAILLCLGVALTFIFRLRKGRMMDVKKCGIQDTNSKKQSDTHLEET
First copying reader's note: Inset table of SPR kinetic constants printed above the sensorgram; the target is PD-L1.
Where the first naming reader finds the target: table_title: nABP786 binding to PD-L1

PD-L1 [3] = molecular target: T2, PD-L1; settings: background section; read-out: Kd-value of antibody drug targeting PD-L1; cited from earlier work
Target sequence in this assay (Q9NZQ7 19-290): as the sequence (Q9NZQ7 19-290 limits assumed) above

PD-1 [4] = molecular target: T1, PD-1; settings: background section; read-out: Kd-value of antibody drug targeting PD-1; cited from earlier work
Target sequence in this assay (Q15116 25-288): as the sequence (Q15116 25-288 limits assumed) above

Jurkat T cells = test: CCK-8 cytotoxicity assay on Jurkat T cells; type: cell-based, Human; settings: CCK-8, 1-64 μM, 24 hours
Protocol: (§8) Cytotoxicity assay was performed and measured with Cell Counting Kit-8 (CCK-8, Dujindo, Japan). Jurkat cells (each well with 4000 cells), PBMCs (each well with 4000 cells) and Cal27 cells (each well with 2000 cells) were added into a 96-well plate and cultured for 24 hours, respectively. nABP284, nABP386 and nABP486 in a concentration gradient of 1 μM, 2 μM, 3 μM, 4 μM, 8 μM, 16 μM, 32 μM and 64 μM were added into the medium and the cells were cultured for 24 hours in a cell incubator. After that, 10 μl of CCK-8 solution was added to each well and the cells were incubated for 2 hours. VictorX5 Multilabel plate reader (PerkinElmer, Singapore) was used for measuring absorbance of each well at 450 nm. Cell viability (%) was calculated by the following formula:
(§9) Cell viability (%)=[(Sample A−Background A)/(Control A−Blank A)×100%. • Wherein Sample A denotes the absorbance of the experimental well (including cells, CCK-8 solution, medium and peptide diluent) • Background A denotes the absorbance of the background hole (including CCK-8 solution, medium, and peptide diluent without cells); • Control A denotes the absorbance of the control hole (including cells, CCK-8 solution and medium without peptide diluent); and • Blank A denotes the absorbance of the blank hole (including CCK-8 solution and medium without cells and peptide diluent).

Cal27 cells = test: CCK-8 cytotoxicity assay on Cal27 cells; type: cell-based, Human; settings: CCK-8, 1-64 μM, 24 hours
Protocol: as §8, §9

[5] = system: peripheral blood derived lymphocytes; test: CCK-8 cytotoxicity assay on PBMCs / iCIKs; type: cell-based, Human; settings: CCK-8, 1-64 μM, 24 hours
Protocol: as §8, §9

[6] = system: Cal27 cells co-cultured with iCIKs; test: iCIKs-mediated tumor killing efficiency on Cal27 cells (LDH release); type: cell-based, Human; settings: 10 μM peptide or 2 ug/ml antibody, iCIKs:Cal27 10 to 1, 6 hours
Protocol: Human peripheral blood and PBS are mixed at a ratio of 1 to 1, and then the mixture was added to the surface of Ficoll solution in an equal volume and the mixture and Ficoll were kept layered. Density gradient centrifugation (400 g, 20 min) was used for separating components of the peripheral blood. 10 ug/ml of Anti-CD3 monoclonal antibody (T210, TAKARA) was coated on cell culture dishes to cover the mixture at 4° C. overnight. The separated PBMCs were added to the coated dishes in which RPMI1640 medium supplemented with 10% of fetal calf serum, 2000 U/ml of IFN-γ, and 10 ng/ml of IL-2 was added and was changed every three days. After a ten-day culture, the stimulated PBMCs were known as improving cytokine-induced killer cells (iCIKs).
500 U/ml of IFN-γ was used for stimulating Cal27 cells for 48 hours. The iCIKs were incubated with 10 uM of nABP284, 10 μM of nABP386, 10 μM of nABP486, and 2 ug/ml of PD-1 functional monoclonal antibody (J116, eBioscience|ThermoFisher Science) for 1 hour at 37° C., respectively, and the stimulated CAL27 cells were added to the 96-well plate at 1×10^4 cells per well. […] After these cells were co-cultured for 6 hours, a Cyto Tox Non-Radioactive Cytotoxicity Assay kit was used for detecting the level of lactic dehydrogenase (LDH) in the medium and VictorX5 multilabel plate reader (PerkinElmer, Singapore) was used for measuring absorbance at 490 nm.

Compound: CC[C@H](C)[C@H](NC(=O)[C@H](CCC(=O)O)NC(=O)[C@H](CCCCN)NC(=O)[C@H](CC(C)C)NC(=O)[C@H](CCCCNC(=O)[C@H](CC(C)C)NC(=O)[C@H](CCCNC(=N)N)NC(=O)[C@H](Cc1c[nH]cn1)NC(=O)[C@H](Cc1c[nH]cn1)NC(=O)[C@H](Cc1c[nH]cn1)NC(=O)[C@@H](N)CO)NC(=O)[C@H](CC(C)C)NC(=O)[C@H](CCCNC(=N)N)NC(=O)[C@H](Cc1c[nH]cn1)NC(=O)[C@H](Cc1c[nH]cn1)NC(=O)[C@H](Cc1c[nH]cn1)NC(=O)[C@@H](N)CO)C(=O)N[C@@H](C)C(=O)N[C@@H](CC(N)=O)C(=O)N[C@@H](CS)C(=O)N[C@@H](CO)C(=O)N1CCC[C@H]1C(=O)N[C@H](C(=O)N[C@@H](CCC(N)=O)C(=O)N[C@@H](Cc1ccccc1)C(=O)N[C@@H](CCCCN)C(=O)N[C@@H](CS)C(=O)O)[C@@H](C)O [nABP786] (HELM PEPTIDE1{S.H.H.H.R.L.K.L.K.E.I.A.N.C.S.P.T.Q.F.K.C}|PEPTIDE2{S.H.H.H.R.L}$PEPTIDE1,PEPTIDE2,7:R3-6:R2$$$V2.0)
- ka (PD-1 [1]): 77600 M⁻¹ s⁻¹
- ka (PD-L1 [2]): 29000 M⁻¹ s⁻¹

Compound: Atezolizumab
- Kd (PD-L1 [3]): 0.4 nM

Compound: Cemiplimab
- Kd (PD-1 [4]): 6.11 nM

Compound: Cindilimab
- Kd (PD-1 [4]): 0.25 nM

Compound: Durvalumab
- Kd (PD-L1 [3]): 0.667 nM

Compound: I: SHHHRLKLKEIANSPTQFWRMVARNTLGNGAKQSLNIEHA / II: SHHHRL (amide I:7-II:C) [nABP486]
- direct cytotoxicity to Jurkat T cells (Jurkat T cells): no directly cytotoxicity; also recorded: non-toxic and side effects
- direct cytotoxicity to Cal27 cells (Cal27 cells): no directly cytotoxicity; also recorded: no direct killing ability to Cal27 cells; also recorded: non-toxic and side effects
- toxicity on peripheral blood derived lymphocytes [5]: non-toxic and side effects
- iCIKs-mediated cytotoxicity (killing ability) for Cal27 cells [6]: significantly increased; also recorded: significantly reverse the immune escape of tongue cancer cells; also recorded: superior to functional anti-PD-1 antibody; also recorded: can enhance the tumor killing effect of lymphocytes on tumor cells

Compound: I: SRLKEIANSPTQFWRMVARNTLGNHAKQSLNIEHA / II: SHHHRL (amide I:27-II:C) [nABP386]
- direct cytotoxicity to Jurkat T cells (Jurkat T cells): no directly cytotoxicity; also recorded: non-toxic and side effects
- direct cytotoxicity to Cal27 cells (Cal27 cells): no directly cytotoxicity; also recorded: non-toxic and side effects
- toxicity on peripheral blood derived lymphocytes [5]: non-toxic and side effects
- iCIKs-mediated cytotoxicity (killing ability) for Cal27 cells [6]: can enhance the tumor killing effect of lymphocytes on tumor cells

Compound: Toripalimab
- Kd (PD-1 [4]): 0.324 nM
